Results on ten molecules are retold here after US5753617A, “Peptide inhibitors of cellular adhesion” (Centocor, Inc., priority 1995, dated 1998).

The conditions of data set [1]: disulfide bond, water.
Data set [2] deals with T1, P-selectin (Homo sapiens, UniProt P16109).
T1 construct: P-selectin is isolated from human platelet lysates; from tissue; host or cells: human platelets (outdated platelet packs from a blood bank)
T1 sequence (P16109 42-830): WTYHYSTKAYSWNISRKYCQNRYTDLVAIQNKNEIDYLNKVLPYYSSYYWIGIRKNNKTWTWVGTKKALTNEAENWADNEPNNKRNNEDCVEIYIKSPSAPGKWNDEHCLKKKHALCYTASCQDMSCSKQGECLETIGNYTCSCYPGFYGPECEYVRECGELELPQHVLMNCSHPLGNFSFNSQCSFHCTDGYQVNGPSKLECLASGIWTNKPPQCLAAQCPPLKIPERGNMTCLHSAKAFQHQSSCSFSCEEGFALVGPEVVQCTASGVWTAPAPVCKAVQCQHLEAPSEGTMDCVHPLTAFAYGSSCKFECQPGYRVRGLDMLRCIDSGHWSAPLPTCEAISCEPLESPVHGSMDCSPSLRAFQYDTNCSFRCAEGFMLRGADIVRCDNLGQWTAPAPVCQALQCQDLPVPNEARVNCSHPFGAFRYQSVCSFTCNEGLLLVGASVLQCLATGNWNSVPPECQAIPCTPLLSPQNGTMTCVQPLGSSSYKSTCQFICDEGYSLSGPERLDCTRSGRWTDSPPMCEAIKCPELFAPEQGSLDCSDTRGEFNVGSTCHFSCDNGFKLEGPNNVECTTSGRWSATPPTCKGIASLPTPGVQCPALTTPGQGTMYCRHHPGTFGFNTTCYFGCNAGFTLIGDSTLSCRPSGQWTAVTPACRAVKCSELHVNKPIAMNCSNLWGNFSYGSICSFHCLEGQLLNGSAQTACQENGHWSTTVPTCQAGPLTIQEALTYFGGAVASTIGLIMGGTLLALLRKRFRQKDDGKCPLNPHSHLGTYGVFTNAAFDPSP
In words: Inhibition of human neutrophil adhesion to purified P-selectin immobilized on plastic wells. The data set is classed as cell-based. As to conditions: inhibiting the binding of human neutrophils to P-selectin. Put shortly:
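Isolated human neutrophils (2×10^5 per well) in HBSS with Ca2+/Mg2+ and HSA added to wells coated overnight at 4° C with platelet-derived P-selectin (5 micrograms/mL), HSA-blocked; 20 min at 22° C. Nonadherent cells removed by inverted centrifugation at 150 g; adherent cells quantified by myeloperoxidase activity.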

Several values for one entry are separate records, joined by “and”; a condition that tells them apart may be missing. Equal values may be shown once. Read-outs that look alike come from different tables or passages of the source. Where a SMILES comes first, the peptide text is derived from it. Bridges are numbered along the chain shown (N, C = ends). [ ]: non-standard residue; d: D form.

One may read the IC50 as the midpoint of a concentration-inhibition curve. Regarding `CC(C)[C@@H](NC(=O)[C@@H](Cc1c[nH]c2ccccc12)NC(=O)[C@H](NC(=O)[C@@H](Cc1c[nH]c2ccccc12)NC(=O)[C@H]1CSSC[C@@H](NC(=O)[C@@H](CCCCN)NC(=O)[C@H](N)CCCNC(=N)N)C(=O)NCC(=O)N[C@@H](CCC(N)=O)C(=O)N1)[C@H](C)O)C(N)=O` [(65)] (H-[dR][dK][dC]GQ[dC][dW][dT][dW][dV]-NH2; disulfide 3-6), the ring closure, yield of all isomers in data set [1] (from CC(C)[C@@H](NC(=O)[C@@H](Cc1c[nH]c2ccccc12)NC(=O)[C@H](NC(=O)[C@@H](Cc1c[nH]c2ccccc12)NC(=O)[C@@H](CS)NC(=O)[C@H](CCC(N)=O)NC(=O)CNC(=O)[C@@H](CS)NC(=O)[C@@H](CCCCN)NC(=O)[C@H](N)CCCNC(=N)N)[C@H](C)O)C(N)=O, Cu wire, NH4OH (printed NH2OH), 3.16 mM, 20.0 h) turned out to be 6.1%. In data set [2], the IC50 is 46.2 µM and 78.3 µM.
For `CC(C)[C@@H](NC(=O)[C@@H](Cc1c[nH]c2ccccc12)NC(=O)[C@H](NC(=O)[C@@H](Cc1c[nH]c2ccccc12)NC(=O)[C@H]1CSSC[C@@H](NC(=O)[C@@H](CCCCN)NC(=O)[C@H](N)CCCNC(=N)N)C(=O)NCC(=O)N[C@@H](CCC(=O)O)C(=O)N1)[C@H](C)O)C(N)=O` [(66)] (H-[dR][dK][dC]GE[dC][dW][dT][dW][dV]-NH2; disulfide 3-6), the ring closure, yield of all isomers in data set [1] (from CC(C)[C@@H](NC(=O)[C@@H](Cc1c[nH]c2ccccc12)NC(=O)[C@H](NC(=O)[C@@H](Cc1c[nH]c2ccccc12)NC(=O)[C@@H](CS)NC(=O)[C@H](CCC(=O)O)NC(=O)CNC(=O)[C@@H](CS)NC(=O)[C@@H](CCCCN)NC(=O)[C@H](N)CCCNC(=N)N)[C@H](C)O)C(N)=O, Cu wire, NH4OH, 3.16 mM, 20.0 h) amounted to 7.4%. Also, the IC50 in data set [2] was 287 µM.
Molecule `CC[C@H](C)[C@@H]1NC(=O)CNC(=O)[C@H](NC(=O)[C@@H](CCCCN)NC(=O)[C@H](N)CCCNC(=N)N)CSSC[C@H](C(=O)N[C@H](Cc2c[nH]c3ccccc23)C(=O)N[C@@H](C(=O)N[C@H](Cc2c[nH]c3ccccc23)C(=O)N[C@@H](C(N)=O)C(C)C)[C@H](C)O)NC1=O` [(68)] (H-[dR][dK][dC]GI[dC][dW][dT][dW][dV]-NH2; disulfide 3-6) displayed a ring closure, yield of all isomers in data set [1] (from CC[C@H](C)[C@H](NC(=O)CNC(=O)[C@@H](CS)NC(=O)[C@@H](CCCCN)NC(=O)[C@H](N)CCCNC(=N)N)C(=O)N[C@H](CS)C(=O)N[C@H](Cc1c[nH]c2ccccc12)C(=O)N[C@@H](C(=O)N[C@H](Cc1c[nH]c2ccccc12)C(=O)N[C@@H](C(N)=O)C(C)C)[C@H](C)O, Cu wire, NH4OH, 3.2 mM, 20.0 h) of 2.8%. The molecule further returned an IC50 in data set [2] of 3.7 µM.
In the case of `CC(C)C[C@@H]1NC(=O)CNC(=O)[C@H](NC(=O)[C@@H](CCCCN)NC(=O)[C@H](N)CCCNC(=N)N)CSSC[C@H](C(=O)N[C@H](Cc2c[nH]c3ccccc23)C(=O)N[C@@H](C(=O)N[C@H](Cc2c[nH]c3ccccc23)C(=O)N[C@@H](C(N)=O)C(C)C)[C@H](C)O)NC1=O` [(69)] (H-[dR][dK][dC]GL[dC][dW][dT][dW][dV]-NH2; disulfide 3-6), in data set [1] (from CC(C)C[C@H](NC(=O)CNC(=O)[C@@H](CS)NC(=O)[C@@H](CCCCN)NC(=O)[C@H](N)CCCNC(=N)N)C(=O)N[C@H](CS)C(=O)N[C@H](Cc1c[nH]c2ccccc12)C(=O)N[C@@H](C(=O)N[C@H](Cc1c[nH]c2ccccc12)C(=O)N[C@@H](C(N)=O)C(C)C)[C@H](C)O, DMSO, 0.252 mM, 25.0 °C, 96.0 h), the ring closure, yield of all isomers amounted to 8.3%. The molecule further returned an IC50 in data set [2] of 146 µM.
In data set [1] (from CC(C)[C@@H](NC(=O)[C@@H](Cc1c[nH]c2ccccc12)NC(=O)[C@H](NC(=O)[C@@H](Cc1c[nH]c2ccccc12)NC(=O)[C@@H](CS)NC(=O)[C@H](Cc1ccccc1)NC(=O)[C@H](CCCCN)NC(=O)[C@@H](CS)NC(=O)[C@@H](CCCCN)NC(=O)[C@H](N)CCCNC(=N)N)[C@H](C)O)C(N)=O, DMSO, 0.708 mM, 48.0 h), `CC(C)[C@@H](NC(=O)[C@@H](Cc1c[nH]c2ccccc12)NC(=O)[C@H](NC(=O)[C@@H](Cc1c[nH]c2ccccc12)NC(=O)[C@H]1CSSC[C@@H](NC(=O)[C@@H](CCCCN)NC(=O)[C@H](N)CCCNC(=N)N)C(=O)N[C@@H](CCCCN)C(=O)N[C@@H](Cc2ccccc2)C(=O)N1)[C@H](C)O)C(N)=O` [(70)] (H-[dR][dK][dC]KF[dC][dW][dT][dW][dV]-NH2; disulfide 3-6) returned a ring closure, yield of all isomers of 8.8%. The same molecule registered an IC50 in data set [2] of 85.9 µM.
Molecule `CC(C)[C@@H](NC(=O)[C@@H](Cc1c[nH]c2ccccc12)NC(=O)[C@H](NC(=O)[C@@H](Cc1c[nH]c2ccccc12)NC(=O)[C@H]1CSSC[C@@H](NC(=O)[C@@H](CCCCN)NC(=O)[C@H](N)CCCNC(=N)N)C(=O)NCC(=O)N[C@@H](CCCCN)C(=O)N1)[C@H](C)O)C(N)=O` [(71)] (H-[dR][dK][dC]GK[dC][dW][dT][dW][dV]-NH2; disulfide 3-6) had a ring closure, yield of all isomers in data set [1] (from CC(C)[C@@H](NC(=O)[C@@H](Cc1c[nH]c2ccccc12)NC(=O)[C@H](NC(=O)[C@@H](Cc1c[nH]c2ccccc12)NC(=O)[C@@H](CS)NC(=O)[C@H](CCCCN)NC(=O)CNC(=O)[C@@H](CS)NC(=O)[C@@H](CCCCN)NC(=O)[C@H](N)CCCNC(=N)N)[C@H](C)O)C(N)=O, DMSO, 0.181 mM, 72.0 h) of 10.4%. In addition, the IC50 in data set [2] came to 2000 µM.
In data set [1] (from CC(C)[C@@H](NC(=O)[C@@H](Cc1c[nH]c2ccccc12)NC(=O)[C@H](NC(=O)[C@H]1CCCN1C(=O)[C@@H](CS)NC(=O)[C@H](Cc1ccccc1)NC(=O)CNC(=O)[C@@H](CS)NC(=O)[C@@H](CCCCN)NC(=O)[C@H](N)CCCNC(=N)N)[C@H](C)O)C(N)=O, DMSO, 0.14 mM, 192.0 h), `CC(C)[C@@H](NC(=O)[C@@H](Cc1c[nH]c2ccccc12)NC(=O)[C@H](NC(=O)[C@H]1CCCN1C(=O)[C@H]1CSSC[C@@H](NC(=O)[C@@H](CCCCN)NC(=O)[C@H](N)CCCNC(=N)N)C(=O)NCC(=O)N[C@@H](Cc2ccccc2)C(=O)N1)[C@H](C)O)C(N)=O` [(76)] (H-[dR][dK][dC]GF[dC][dP][dT][dW][dV]-NH2; disulfide 3-6) yielded a ring closure, yield of all isomers of 20.6%. In data set [2], this molecule returned an IC50 of 105 µM.
Molecule `CC(C)[C@@H](NC(=O)[C@@H](Cc1ccccc1)NC(=O)[C@H](NC(=O)[C@@H](Cc1c[nH]c2ccccc12)NC(=O)[C@H]1CSSC[C@@H](NC(=O)[C@@H](CCCCN)NC(=O)[C@H](N)CCCNC(=N)N)C(=O)NCC(=O)N[C@@H](Cc2ccccc2)C(=O)N1)[C@H](C)O)C(N)=O` [(79)] (H-[dR][dK][dC]GF[dC][dW][dT][dF][dV]-NH2; disulfide 3-6) yielded a ring closure, yield of all isomers in data set [1] (from CC(C)[C@@H](NC(=O)[C@@H](Cc1ccccc1)NC(=O)[C@H](NC(=O)[C@@H](Cc1c[nH]c2ccccc12)NC(=O)[C@@H](CS)NC(=O)[C@H](Cc1ccccc1)NC(=O)CNC(=O)[C@@H](CS)NC(=O)[C@@H](CCCCN)NC(=O)[C@H](N)CCCNC(=N)N)[C@H](C)O)C(N)=O, DMSO, 0.101 mM) of 15.2%. In addition, in data set [2], the IC50 was determined as 7.7 µM.
In turn, `CC(C)[C@@H](NC(=O)[C@@H](Cc1c[nH]c2ccccc12)NC(=O)[C@H](NC(=O)[C@@H](Cc1c[nH]c2ccccc12)NC(=O)[C@H]1CSSC[C@@H](NC(=O)[C@@H](CCCCN)NC(=O)[C@H](N)CCCNC(=N)N)C(=O)N2CCC[C@H]2C(=O)N[C@@H](Cc2ccccc2)C(=O)N1)[C@H](C)O)C(N)=O` [(84)] (H-[dR][dK][dC]PF[dC][dW][dT][dW][dV]-NH2; disulfide 3-6) displayed a ring closure, yield of all isomers in data set [1] (from CC(C)[C@@H](NC(=O)[C@@H](Cc1c[nH]c2ccccc12)NC(=O)[C@H](NC(=O)[C@@H](Cc1c[nH]c2ccccc12)NC(=O)[C@@H](CS)NC(=O)[C@H](Cc1ccccc1)NC(=O)[C@@H]1CCCN1C(=O)[C@@H](CS)NC(=O)[C@@H](CCCCN)NC(=O)[C@H](N)CCCNC(=N)N)[C@H](C)O)C(N)=O, air (copper wire, ammonium acetate pH 8.5), 0.756 mM, 25.0 °C) of 12%. Moreover, in data set [2], the IC50 amounted to 26.4 µM.
`CC(C)[C@@H]1NC(=O)CNC(=O)[C@H](NC(=O)[C@@H](CCCCN)NC(=O)[C@H](N)CCCNC(=N)N)CSSC[C@H](C(=O)N[C@H](Cc2c[nH]c3ccccc23)C(=O)N[C@@H](C(=O)N[C@H](Cc2c[nH]c3ccccc23)C(=O)N[C@@H](C(N)=O)C(C)C)[C@H](C)O)NC1=O` [(89)] (H-[dR][dK][dC]GV[dC][dW][dT][dW][dV]-NH2; disulfide 3-6) returned a ring closure, yield of all isomers in data set [1] (from CC(C)[C@H](NC(=O)CNC(=O)[C@@H](CS)NC(=O)[C@@H](CCCCN)NC(=O)[C@H](N)CCCNC(=N)N)C(=O)N[C@H](CS)C(=O)N[C@H](Cc1c[nH]c2ccccc12)C(=O)N[C@@H](C(=O)N[C@H](Cc1c[nH]c2ccccc12)C(=O)N[C@@H](C(N)=O)C(C)C)[C@H](C)O, DMSO, 0.387 mM, 25.0 °C, 72.0 h) of 4%. The 50% inhibitory concentration (IC50) in data set [2] amounted to 22.3 µM.
